From patent publication US20070049564A1 (Wyeth, priority 2005, published 2007)
Read-outs that look alike come from different tables or passages of the source.

What was measured:
E. coli GC 2231 = test: MIC, broth microdilution; settings: Escherichia coli
E. coli GC 2232 = test: MIC, broth microdilution; settings: Escherichia coli
E. coli GC 2234 = test: MIC, broth microdilution; settings: Escherichia coli
E. coli GC 2272 = test: MIC, broth microdilution; settings: Escherichia coli
E. coli GC 3226 = test: MIC, broth microdilution; settings: Escherichia coli
S. typhimurium GC 2172 = test: MIC, broth microdilution; settings: Salmonella enterica, TYPHIMURIUM
S. aureus GC 1131 = test: MIC, broth microdilution; settings: Staphylococcus aureus
S. aureus GC 6466 = test: MIC, broth microdilution; settings: Staphylococcus aureus
S. aureus GC 1079 = test: MIC, broth microdilution; settings: Staphylococcus aureus
S. aureus GC 2216 = test: MIC, broth microdilution; settings: Staphylococcus aureus
S. aureus GC 6335 = test: MIC, broth microdilution; settings: Staphylococcus aureus
S. epidermidis GC 4935 = test: MIC, broth microdilution; settings: Staphylococcus epidermidis
E. faecalis GC 2267 = test: MIC, broth microdilution; settings: Enterococcus faecalis
E. faecium GC 4556 = test: MIC, broth microdilution; settings: Enterococcus faecium
E. faecium GC 2243 = test: MIC, broth microdilution; settings: Enterococcus faecium
Experimental: Antimicrobial susceptibility testing. The in vitro activities of the antibiotics are determined by the broth microdilution method as recommended by the National Committee for Clinical Laboratory Standards (NCCLS) (1). Mueller-Hinton II broth (MHBII)(BBL Cockeysville, Md.) is the medium employed in the testing procedures. Microtiter plates containing serial dilutions of each antimicrobial agent are inoculated with each organism to yield the appropriate density (10^5 CFU/ml) in a 100 μl final volume. The plates are incubated for 18-22 hours at 35° C. in ambient air.
Representative compounds were first incubated in mouse serum for an hour prior to the in vitro testing against a panel of selected gram-positive and gram-negative bacteria strains. All compounds were also pre-incubated in water for an hour prior to testing as control.

S. pneumoniae* GC 4465 = test: MIC, broth microdilution; settings: Streptococcus pneumoniae
S. pneumoniae+ GC 4465 = test: MIC, broth microdilution; settings: Streptococcus pneumoniae
S. pyogenes GC 4563 = test: MIC, broth microdilution; settings: Streptococcus pyogenes
c. albicans GC 3066 = test: MIC, broth microdilution
Staph. aureus Smith = test: In vivo activity (oral, iv; ED50) against Staph. aureus Smith in mice
Experimental: Representative examples of compounds of Formula I were tested for the oral efficacy using S. aureus Smith in mice.

[1] = read-out: MINIMAL INHIBITORY CONCENTRATION MIC, Human Serum
[2] = read-out: MINIMAL INHIBITORY CONCENTRATION MIC, Mouse Serum
[3] = read-out: MINIMAL INHIBITORY CONCENTRATION MIC, Water

CCCCCCC(=O)OCOC(=O)N(CC(=O)Nc1cc(N(C)C)c2c(c1O)C(=O)C1=C(O)[C@]3(O)C(=O)C(C(N)=O)=C(O)[C@@H](N(C)C)[C@@H]3C[C@@H]1C2)C(C)(C)C [Example 48, ({[(2-{[(5aR,6aS,7S,10aS)-9-(aminocarbonyl)-4,7-bis(dimethylamino)-1,8,10a,11-tetrahydroxy-10,12-dioxo-5,5a,6,6a,7,10,10a,12-octahydrotetracen-2-yl]amino}-2-oxoethyl)(tert-butyl)amino]carbonyl}oxy)methyl heptanoate]
10.1 mg/kg: ED50 (Staph. aureus Smith; Staphylococcus aureus, in Mus musculus, po, read-out: ED50 SOD (Staph aureus Smith)) | ED50 (Staph. aureus Smith; Staphylococcus aureus, in Mus musculus, po, read-out: ED50 Staph Smith SOD)
1.1 mg/kg: ED50 (Staph. aureus Smith; Staphylococcus aureus, in Mus musculus, iv, read-out: ED50 SIV (Staph aureus Smith)) | ED50 (Staph. aureus Smith; iv, read-out: ED50 Staph Smith SIV)
32 µg/mL: MIC (E. coli GC 3226; GC3226, read-out: MINIMAL INHIBITORY CONCENTRATION MIC, Human Serum)
>64 UG/ML: MINIMAL INHIBITORY CONCENTRATION MIC (c. albicans GC 3066; Human Serum) | MINIMAL INHIBITORY CONCENTRATION MIC (c. albicans GC 3066; Mouse Serum)
0.12 µg/mL: MIC (S. aureus GC 6466; GC6466, read-out: MINIMAL INHIBITORY CONCENTRATION MIC, Human Serum) | MIC (S. aureus GC 6466; GC6466, read-out: MINIMAL INHIBITORY CONCENTRATION MIC, Mouse Serum) | MIC (S. aureus GC 6466; GC6466, read-out: MINIMAL INHIBITORY CONCENTRATION MIC, Water) | MIC (S. pneumoniae* GC 4465; [1]) | MIC (S. pneumoniae* GC 4465; [2]) | MIC (S. pneumoniae* GC 4465; [3]) | MIC (S. pyogenes GC 4563; GC4563, read-out: MINIMAL INHIBITORY CONCENTRATION MIC, Human Serum) | MIC (S. pyogenes GC 4563; GC4563, read-out: MINIMAL INHIBITORY CONCENTRATION MIC, Mouse Serum) | MIC (S. pyogenes GC 4563; GC4563, read-out: MINIMAL INHIBITORY CONCENTRATION MIC, Water)
64 µg/mL: MIC (E. coli GC 2231; GC2231, read-out: MINIMAL INHIBITORY CONCENTRATION MIC, Water) | MIC (E. coli GC 2232; GC2232, read-out: MINIMAL INHIBITORY CONCENTRATION MIC, Water) | MIC (E. coli GC 2234; GC2234, read-out: MINIMAL INHIBITORY CONCENTRATION MIC, Water) | MIC (E. coli GC 2272; GC2272, read-out: MINIMAL INHIBITORY CONCENTRATION MIC, Water)
8 µg/mL: MIC (E. coli GC 2272; GC2272, read-out: MINIMAL INHIBITORY CONCENTRATION MIC, Human Serum)
0.5 µg/mL: MIC (E. coli GC 2231; GC2231, read-out: MINIMAL INHIBITORY CONCENTRATION MIC, Mouse Serum) | MIC (E. coli GC 2234; GC2234, read-out: MINIMAL INHIBITORY CONCENTRATION MIC, Mouse Serum) | MIC (E. coli GC 3226; GC3226, read-out: MINIMAL INHIBITORY CONCENTRATION MIC, Mouse Serum) | MIC (S. aureus GC 2216; GC2216, read-out: MINIMAL INHIBITORY CONCENTRATION MIC, Water) | MIC (S. epidermidis GC 4935; GC4935, read-out: MINIMAL INHIBITORY CONCENTRATION MIC, Human Serum) | MIC (S. epidermidis GC 4935; GC4935, read-out: MINIMAL INHIBITORY CONCENTRATION MIC, Mouse Serum) | MIC (E. faecalis GC 2267; GC2267, read-out: MINIMAL INHIBITORY CONCENTRATION MIC, Mouse Serum) | MIC (E. faecium GC 4556; GC4556, read-out: MINIMAL INHIBITORY CONCENTRATION MIC, Mouse Serum) | MIC (E. faecium GC 2243; GC2243, read-out: MINIMAL INHIBITORY CONCENTRATION MIC, Water)
> 64 µg/mL: MIC (E. coli GC 3226; GC3226, read-out: MINIMAL INHIBITORY CONCENTRATION MIC, Water) | MIC (S. typhimurium GC 2172; [1]) | MIC (S. typhimurium GC 2172; [3]) | MIC (c. albicans GC 3066; Candida albicans, GC3066, read-out: MINIMAL INHIBITORY CONCENTRATION MIC)
1 µg/mL: MIC (S. aureus GC 1079; GC1079, read-out: MINIMAL INHIBITORY CONCENTRATION MIC, Water) | MIC (S. epidermidis GC 4935; GC4935, read-out: MINIMAL INHIBITORY CONCENTRATION MIC, Water) | MIC (E. faecalis GC 2267; GC2267, read-out: MINIMAL INHIBITORY CONCENTRATION MIC, Human Serum) | MIC (E. faecium GC 4556; GC4556, read-out: MINIMAL INHIBITORY CONCENTRATION MIC, Human Serum) | MIC (E. faecium GC 4556; GC4556, read-out: MINIMAL INHIBITORY CONCENTRATION MIC, Water)
4 µg/mL: MIC (S. typhimurium GC 2172; [2])
16 µg/mL: MIC (E. coli GC 2231; GC2231, read-out: MINIMAL INHIBITORY CONCENTRATION MIC, Human Serum) | MIC (E. coli GC 2232; GC2232, read-out: MINIMAL INHIBITORY CONCENTRATION MIC, Human Serum) | MIC (E. coli GC 2234; GC2234, read-out: MINIMAL INHIBITORY CONCENTRATION MIC, Human Serum)
2 µg/mL: MIC (S. aureus GC 6335; GC6335, read-out: MINIMAL INHIBITORY CONCENTRATION MIC, Human Serum) | MIC (S. aureus GC 6335; GC6335, read-out: MINIMAL INHIBITORY CONCENTRATION MIC, Mouse Serum) | MIC (S. aureus GC 6335; GC6335, read-out: MINIMAL INHIBITORY CONCENTRATION MIC, Water) | MIC (E. faecalis GC 2267; GC2267, read-out: MINIMAL INHIBITORY CONCENTRATION MIC, Water)
0.25 µg/mL: MIC (E. coli GC 2232; GC2232, read-out: MINIMAL INHIBITORY CONCENTRATION MIC, Mouse Serum) | MIC (E. coli GC 2272; GC2272, read-out: MINIMAL INHIBITORY CONCENTRATION MIC, Mouse Serum) | MIC (S. aureus GC 1131; GC1131, read-out: MINIMAL INHIBITORY CONCENTRATION MIC, Human Serum) | MIC (S. aureus GC 1131; GC1131, read-out: MINIMAL INHIBITORY CONCENTRATION MIC, Mouse Serum) | MIC (S. aureus GC 1131; GC1131, read-out: MINIMAL INHIBITORY CONCENTRATION MIC, Water) | MIC (S. aureus GC 1079; GC1079, read-out: MINIMAL INHIBITORY CONCENTRATION MIC, Human Serum) | MIC (S. aureus GC 1079; GC1079, read-out: MINIMAL INHIBITORY CONCENTRATION MIC, Mouse Serum) | MIC (S. aureus GC 2216; GC2216, read-out: MINIMAL INHIBITORY CONCENTRATION MIC, Human Serum) | MIC (S. aureus GC 2216; GC2216, read-out: MINIMAL INHIBITORY CONCENTRATION MIC, Mouse Serum) | MIC (E. faecium GC 2243; GC2243, read-out: MINIMAL INHIBITORY CONCENTRATION MIC, Human Serum) | MIC (E. faecium GC 2243; GC2243, read-out: MINIMAL INHIBITORY CONCENTRATION MIC, Mouse Serum) | MIC (S. pneumoniae+ GC 4465; [1]) | MIC (S. pneumoniae+ GC 4465; [2]) | MIC (S. pneumoniae+ GC 4465; [3])
